These results are taken from patent US8765953B2, “Compounds and methods for the treatment of pain and other diseases” (Aquilus Pharmaceuticals, Inc., priority 2008, dated 2014).

Molecules are shown by their SMILES.

Series [1] relates to spinal nerve ligation (SNL) mouse model. Description: Intraperitoneal (i.p.) SNL-mouse model of neuropathic pain, von Frey mechanical allodynia. The series is classed as in vivo. An excerpt:
To measure the neuropathic pain inhibiting affects of the MMP inhibitors of the present invention, the spinal nerve ligation (SNL) mouse model was run on a select number of compounds. This model which began with the work of Bennet and coworkers (Bennet, G. J. et al. Pain, 33, (1988), 87-107) and was optimized by Kim and Chung (Kim, S. H.; Chung, J. M. Pain, 50, (1992), 355-363) entails first, under magnification, the removal of one-third of the transverse process and then identifying and then dissecting free the L5 spinal nerve from the adjacent L4 spinal nerve in the mouse. The L5 spinal nerve is then tightly ligated using 6.0 silk suture. The nerve injury leads to hyperalgesia which manifests itself by enhanced responses to mechanical, heat and/or cooling stimuli. In this case, mechanical hyperalgesia is tested via Von Frey monofilaments in which filaments of varying thicknesses and bending force are individually applied to the plantar surface of the foot of the mouse. The threshold force necessary for paw withdrawal decreases dramatically after the nerve surgery. Potent pain inhibitors will reverse this affect resulting in greater force needing to be applied to cause the rodent paw to withdrawal.
Tactile Allodynia Test. Mechanical allodynia was measured using the calibrated von Frey filaments (Semmes-Weinstein monofilaments; Stoelting, Wood Dale, Ill., U.S.A.). The plantar surface of the left injured paw of each animal was tested as described by Chaplan et al. (Journal of Neuroscience Methods, 53, (1994), 55-63). The Fifty percent paw withdrawal threshold response was determined by sequentially increasing or decreasing the stimulus strength according to the “up-down method” of Dixon (Annual Review Pharmacology Toxicology, 20, (1980), 441-462). For mice, […] von Frey filaments were used, with approximately equal logarithmic incremental bending forces (von Frey number: 1.65, 2.36, 2.44, 2.83, 3.22, 3.61, 3.84, 4.08, and 4.17; equivalent to 0.005, 0.02, 0.03, 0.07, 0.17, 0.41, 0.69, 1.20, and 1.48 g force, respectively).
Prior to testing, each animal was placed in a suspended clear plastic chamber with a wire mesh bottom and acclimated for 15 minutes. Testing was initiated with the 0.07 g (handle marking of 2.83) applied perpendicularly to the plantar surface of the affected hind paw; each filament was applied with enough pressure to cause a buckle effect. The absence of a paw lifting/withdrawal response after 6 s prompted the use of the next higher weight filament. Paw withdrawal, indicating a positive response, prompted the use of a weaker filament. After the initial positive response (i.e., paw withdrawal), the testing continued for four additional measurements, and was used to calculate the response threshold. Four consecutive positive responses received a score of 0.001 g, and five consecutive negative responses (i.e., no paw withdrawal) received a score of 1.5 g.
Analyses for Tactile Allodynia Testing. The 50% paw withdrawal threshold was calculated (PWT; Luo and Calcutt, J. Pharmacology Experimental Therapeutics, 303(3), (2002), 1199-1205; Chaplan et al. Journal of Neuroscience Methods, 53, (1994), 55-63) using the formula: 10(Xf+κδ)/10,000 where Xf is the final von Frey filament used (log units), κ is a value that analyzes the response pattern (taken from the table published by Chaplan et al., 1994), and δ is the mean difference between stimuli (log units).
Except for the mode of administration, number of mice/group and the number of injections and amount of compound per injection, the rest of the study was done in the same manner (in regards to the surgeries and tactile allodynia testing and analysis) as Experiment 110. 3.2 mg of each of the MMP inhibitors #5 and #118 were dissolved in 320 microliters of DMSO. To the solution was then added 32 microliters of Tween 80, followed by 2850 microliters of phosphate buffered saline (PBS). This gave a final concentration of 10% DMSO, 1% Tween and 1 mg/ml compound. […]

The subject of another series is humans. As to conditions: cited from earlier work.
A short description of series [2]: In-vitro human microsomal stability. It is filed as in vitro ADME. As to conditions: human microsomes, 1 microMolar compound, at T = 60 minutes. The method, then: Human and mouse microsomal stability was determined for select compounds following the method of Houston (Houston, J. B; Biochem. Pharmacol. 47, (1994),1469).
1 μM concentration of compound and separate human and mouse microsomes (0.3 mg/mL, BD bioscience) were used in the in-vitro assay. To ensure proper energy supply for microsomal degradation of compound, an energy regenerating system comprised of 100 mM potassium phosphate, 2 mM NADPH, 3 mM MgCl2, pH=7.4. and the microsomal protein is added to each sample and the resulting suspension is then incubated in duplicate for 60 min at 37° C. in a rotary shaker. A control is run for each test agent in duplicate omitting NADPH to detect NADPH-free degradation. At T=0 and T=60 min., an aliquot is removed from each experimental and control reaction and then mixed with an equal volume of ice-cold Stop Solution (consisting of 0.3% acetic acid in acetonitrile containing haloperidol and diclofenac as internal standards). […] The samples are then centrifuged to remove precipitated protein, and the supernatants are then analyzed by LC-MS/MS to determine the percentage of compound remaining. […] After separation on a C18 reverse phase HPLC column (Agilent, Waters, or equivalent) using an acetonitrile-water gradient system, peaks were analyzed by mass spectrometry (MS) using ESI ionization in MRM mode.

Where [3] appears, read: i.p. 100 μl/mouse daily (approx. 3.3 mg/Kg), day 1-5.

`Cc1ccc(C#Cc2ccc(S(=O)(=O)N[C@H](Cc3c[nH]c4ccccc34)C(=O)O)s2)cc1` [Compound 5, (R)-3-(1H-Indol-3-yl)-2-(5-p-tolylethynyl-thiophene-2-sulfonylamino)-propionic acid]: in series [1] (setting [3]), the “Paw withdrawal threshold, mean, Day 1” value is recorded as 0.078 grams; the “Paw withdrawal threshold, mean, Day 2” value is listed as 0.117 grams; the “Paw withdrawal threshold, mean, Day 5” value worked out at 0.238 grams; the “Paw withdrawal threshold, mean, Day 6” value is given as 0.099 grams. Further, in series [1] (setting [3]), the “Paw withdrawal threshold, mean, Day 7” value amounted to 0.128 grams. The “Paw withdrawal threshold, mean, Day 0 Postoperative Baseline” value in series [1] (i.p. study, baseline before treatment) turned out to be 0.046 grams. In addition, the Musculoskeletal toxicities result with humans (humans (S-3304: animals or man)) is on record as “no evidence of musculoskeletal toxicities”. Further, the “Adverse events in humans” value in the series on humans (humans) was “headaches, somnolence, vomiting, nausea and gastrointestinal pain”. Further, in series [2] (with NADPH), the “Mean Remaining Parent with NADPH (%)” value was 86%. For the same molecule, the “Mean Remaining Parent without NADPH (%)” value in series [2] (without NADPH (control)) is on record as 89%.
